System: TNFSF3 mRNA
Experiment: TNFSF3 mRNA in whole blood after dietary component and heat-aggregated IgG stimulation
Type: cell-based, human
Settings: case 1, FIG. 5; pre-incubation 30 minutes, HAG 2 hours; quercetin 100 nmol/L
Experimental: The mRNA and cDNA were prepared from the whole blood that was exposed to the dietary components, as well as the whole blood which remained unexposed. In brief, home-made 96-well filterplates were placed over collection plates, and 150 μl 5 mM Tris, pH 7.4, was applied. Following centrifugation at 120×g for 1 min at 4° C., 50 μl of blood samples were applied to each well and immediately centrifuged at 120×g for 2 min at 4° C., followed by washing of each well with 300 μl PBS once with centrifugation at 2000×g for 5 min at 4° C. […] The Ct was determined by analytical software (SDS, ABI).
In this embodiment, heparinized whole blood of two individuals was pre-incubated with various dietary supplements at 37° C. for 30 minutes (at the same blood concentrations as in Embodiment 2), then stimulated with 1.2 μL of heat-aggregated IgG. […] The level of TNFSF3 and TNFSF15 mRNA was then assessed using the method described in Embodiment 1, with the exception that SYBR Green PCR was used to quantitate the mRNA. […]

O=c1c(O)c(-c2ccc(O)c(O)c2)oc2cc(O)cc(O)c12 [quercetin]
HAG-induced TNFSF3 expression, in words: HAG induced TNFSF3 expression in blood exposed to quercetin
